Legend:
ERBB2 = ERBB2 (Homo sapiens, UniProt P04626); assay: KinomeScan; assay type: binding; design: purchased Ambit Biosciences Corp; host or cells: T7 phage in E. coli host derived from BL21; details: read-out: % Ctrl @ 10000 nM
Method: (§1) Kinase assays: Assays were performed as described in Fabian et al. (2005) Nature Biotechnology, vol. 23, p. 329. Kinase-tagged T7 phage strains were grown in parallel in 24 or 96-well blocks in an E. coli host derived from the BL21 strain. E. coli were grown to log-phase and infected with T7 phage from a frozen stock (multiplicity of infection ˜0.1) and incubated with shaking at 32° C. until lysis (−90 minutes). The lysates were centrifuged and filtered to remove cell debris. […] The liganded beads were blocked with excess biotin and washed with blocking buffer (SeaBlock (Pierce), 1% BSA, 0.05% Tween 20, 1 mM DTT) to remove unbound ligand and to reduce non-specific phage binding.
(§2) Test compounds were prepared as 40× stocks in DMSO and diluted into the aqueous environment. 2.5% DMSO was added to control assays lacking a test compound. All reactions were performed in polystyrene 96-well plates that had been pretreated with blocking buffer in a final volume of 0.04 ml. […] The phage titer in the eluates was measured by quantitative PCR.

ERBB4 = ERBB4 (Homo sapiens, UniProt Q15303); assay: KinomeScan; assay type: binding; design: purchased Ambit Biosciences Corp; host or cells: T7 phage in E. coli host derived from BL21; details: read-out: % Ctrl @ 10000 nM
Chain of ERBB4 (Q15303 26-1308): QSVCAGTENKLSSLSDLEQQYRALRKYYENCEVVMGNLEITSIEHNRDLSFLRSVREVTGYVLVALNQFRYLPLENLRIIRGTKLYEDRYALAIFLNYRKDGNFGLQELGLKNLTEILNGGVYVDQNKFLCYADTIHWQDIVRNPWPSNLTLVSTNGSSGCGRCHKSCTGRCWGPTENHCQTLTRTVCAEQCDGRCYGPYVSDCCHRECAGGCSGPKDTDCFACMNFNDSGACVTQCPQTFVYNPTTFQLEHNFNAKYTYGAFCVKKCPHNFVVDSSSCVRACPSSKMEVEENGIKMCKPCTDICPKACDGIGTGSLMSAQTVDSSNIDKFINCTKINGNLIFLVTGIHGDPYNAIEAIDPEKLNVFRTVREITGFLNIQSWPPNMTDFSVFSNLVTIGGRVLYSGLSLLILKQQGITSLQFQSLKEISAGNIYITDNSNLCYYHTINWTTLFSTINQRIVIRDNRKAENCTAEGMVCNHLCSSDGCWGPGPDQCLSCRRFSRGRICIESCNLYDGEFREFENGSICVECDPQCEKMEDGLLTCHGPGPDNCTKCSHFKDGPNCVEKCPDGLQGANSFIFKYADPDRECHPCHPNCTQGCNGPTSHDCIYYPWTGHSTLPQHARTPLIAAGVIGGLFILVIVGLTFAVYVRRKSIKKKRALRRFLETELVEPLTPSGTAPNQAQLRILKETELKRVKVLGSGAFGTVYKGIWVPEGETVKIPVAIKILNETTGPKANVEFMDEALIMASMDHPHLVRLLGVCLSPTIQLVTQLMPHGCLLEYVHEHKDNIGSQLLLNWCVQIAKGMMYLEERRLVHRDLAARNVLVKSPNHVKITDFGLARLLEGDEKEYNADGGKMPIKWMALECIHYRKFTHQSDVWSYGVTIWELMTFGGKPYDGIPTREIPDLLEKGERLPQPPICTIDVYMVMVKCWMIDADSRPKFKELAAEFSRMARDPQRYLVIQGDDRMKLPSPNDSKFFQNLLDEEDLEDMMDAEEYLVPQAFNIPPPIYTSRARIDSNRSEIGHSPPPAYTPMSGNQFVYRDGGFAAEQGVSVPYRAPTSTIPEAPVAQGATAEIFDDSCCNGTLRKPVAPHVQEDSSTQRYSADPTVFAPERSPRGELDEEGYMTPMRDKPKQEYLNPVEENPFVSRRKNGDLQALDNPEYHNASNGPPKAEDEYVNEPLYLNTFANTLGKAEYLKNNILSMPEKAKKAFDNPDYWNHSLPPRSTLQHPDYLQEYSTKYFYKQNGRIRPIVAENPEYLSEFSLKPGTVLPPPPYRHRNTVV
Method: as §1, §2

HCK = target: T1, HCK (Homo sapiens, UniProt P08631); assay: KinomeScan; assay type: binding; details: read-out: % Ctrl @ 10000 nM
T1 construct: host or cells: T7 phage in E. coli host derived from BL21
T1 sequence (P08631 whole entry): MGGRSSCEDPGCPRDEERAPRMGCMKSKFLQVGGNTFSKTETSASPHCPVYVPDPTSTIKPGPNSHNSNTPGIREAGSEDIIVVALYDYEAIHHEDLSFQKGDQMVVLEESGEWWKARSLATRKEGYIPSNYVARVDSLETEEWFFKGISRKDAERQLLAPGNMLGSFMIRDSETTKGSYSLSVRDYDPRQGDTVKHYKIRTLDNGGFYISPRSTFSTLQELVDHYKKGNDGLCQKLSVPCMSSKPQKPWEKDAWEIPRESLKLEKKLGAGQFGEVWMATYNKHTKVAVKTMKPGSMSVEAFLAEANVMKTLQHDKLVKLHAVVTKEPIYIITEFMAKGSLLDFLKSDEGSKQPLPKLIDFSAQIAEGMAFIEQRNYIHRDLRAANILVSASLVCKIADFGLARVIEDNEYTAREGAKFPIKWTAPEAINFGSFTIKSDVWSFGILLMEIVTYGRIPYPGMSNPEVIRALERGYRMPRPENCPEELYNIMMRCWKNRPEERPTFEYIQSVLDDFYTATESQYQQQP
In short: (§3)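 In this phage-display binding screen, compound competes with immobilized ligand for the kinase fusion, and bead-bound phage, eluted after washing, is titered by qPCR.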

DMPK = target: T2, DMPK (Homo sapiens, UniProt Q09013); assay: KinomeScan; assay type: binding; details: read-out: % Ctrl @ 10000 nM
T2 construct: purchased Ambit Biosciences Corp (KinomeScan); host or cells: T7 phage in E. coli host derived from BL21
In short: as §3

CSNK1D = target: T3, CSNK1D (Homo sapiens, UniProt P48730); assay: KinomeScan; assay type: binding; details: read-out: % Ctrl @ 10000 nM
T3 construct: host or cells: T7 phage in E. coli host derived from BL21
In short: as §3

NEK5 = target: T4, NEK5 (Homo sapiens, UniProt Q6P3R8); assay: KinomeScan; assay type: binding; details: read-out: % Ctrl @ 10000 nM
T4 construct: host or cells: T7 phage grown in E. coli host derived from BL21
T4 sequence (Q6P3R8 whole entry): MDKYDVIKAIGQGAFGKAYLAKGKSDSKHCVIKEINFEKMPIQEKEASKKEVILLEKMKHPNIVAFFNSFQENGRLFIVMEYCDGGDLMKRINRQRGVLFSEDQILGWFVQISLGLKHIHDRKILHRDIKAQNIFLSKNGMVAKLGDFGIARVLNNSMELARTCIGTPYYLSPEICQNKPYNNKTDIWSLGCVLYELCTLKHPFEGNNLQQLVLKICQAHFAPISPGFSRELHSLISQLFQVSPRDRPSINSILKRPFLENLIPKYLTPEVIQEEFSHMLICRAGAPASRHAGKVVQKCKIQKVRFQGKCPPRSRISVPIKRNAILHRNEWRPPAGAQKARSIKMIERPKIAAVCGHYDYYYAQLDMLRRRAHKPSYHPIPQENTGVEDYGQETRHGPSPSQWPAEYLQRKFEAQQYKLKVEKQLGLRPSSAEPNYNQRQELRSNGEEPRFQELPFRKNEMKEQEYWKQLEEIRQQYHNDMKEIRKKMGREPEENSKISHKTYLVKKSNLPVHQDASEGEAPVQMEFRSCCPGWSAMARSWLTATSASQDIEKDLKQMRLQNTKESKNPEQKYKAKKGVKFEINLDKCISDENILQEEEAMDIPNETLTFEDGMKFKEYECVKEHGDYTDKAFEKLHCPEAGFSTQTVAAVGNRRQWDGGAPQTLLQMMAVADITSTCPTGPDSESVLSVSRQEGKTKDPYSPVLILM
In short: as §3

VEGFR2 = target: T5, VEGFR2 (Homo sapiens, UniProt P35968); assay: KinomeScan; assay type: binding; details: read-out: % Ctrl @ 10000 nM
T5 construct: host or cells: E. coli host derived from BL21, T7 phage
In short: as §3

FES = target: T6, FES (Homo sapiens, UniProt P07332); assay: KinomeScan; assay type: binding; details: read-out: % Ctrl @ 10000 nM
T6 construct: host or cells: T7 phage in E. coli host derived from BL21
In short: as §3

ABL1(Y253F) = target: T7, ABL1(Y253F) (Homo sapiens, UniProt P00519, Y253F); assay: KinomeScan; assay type: binding; details: read-out: % Ctrl @ 10000 nM
T7 construct: host or cells: E. coli (BL21-derived), T7 phage lysate
In short: as §3

PCTK1 = target: T8, PCTK1 (Homo sapiens, UniProt Q00536); assay: KinomeScan; assay type: binding; details: read-out: % Ctrl @ 10000 nM
T8 construct: host or cells: E. coli host derived from BL21, infected with T7 phage
In short: as §3

PRKD1 = target: T9, PRKD1 (Homo sapiens, UniProt Q15139); assay: KinomeScan; assay type: binding; details: read-out: % Ctrl @ 10000 nM
T9 construct: host or cells: T7 phage in E. coli host derived from BL21
T9 sequence (Q15139 whole entry): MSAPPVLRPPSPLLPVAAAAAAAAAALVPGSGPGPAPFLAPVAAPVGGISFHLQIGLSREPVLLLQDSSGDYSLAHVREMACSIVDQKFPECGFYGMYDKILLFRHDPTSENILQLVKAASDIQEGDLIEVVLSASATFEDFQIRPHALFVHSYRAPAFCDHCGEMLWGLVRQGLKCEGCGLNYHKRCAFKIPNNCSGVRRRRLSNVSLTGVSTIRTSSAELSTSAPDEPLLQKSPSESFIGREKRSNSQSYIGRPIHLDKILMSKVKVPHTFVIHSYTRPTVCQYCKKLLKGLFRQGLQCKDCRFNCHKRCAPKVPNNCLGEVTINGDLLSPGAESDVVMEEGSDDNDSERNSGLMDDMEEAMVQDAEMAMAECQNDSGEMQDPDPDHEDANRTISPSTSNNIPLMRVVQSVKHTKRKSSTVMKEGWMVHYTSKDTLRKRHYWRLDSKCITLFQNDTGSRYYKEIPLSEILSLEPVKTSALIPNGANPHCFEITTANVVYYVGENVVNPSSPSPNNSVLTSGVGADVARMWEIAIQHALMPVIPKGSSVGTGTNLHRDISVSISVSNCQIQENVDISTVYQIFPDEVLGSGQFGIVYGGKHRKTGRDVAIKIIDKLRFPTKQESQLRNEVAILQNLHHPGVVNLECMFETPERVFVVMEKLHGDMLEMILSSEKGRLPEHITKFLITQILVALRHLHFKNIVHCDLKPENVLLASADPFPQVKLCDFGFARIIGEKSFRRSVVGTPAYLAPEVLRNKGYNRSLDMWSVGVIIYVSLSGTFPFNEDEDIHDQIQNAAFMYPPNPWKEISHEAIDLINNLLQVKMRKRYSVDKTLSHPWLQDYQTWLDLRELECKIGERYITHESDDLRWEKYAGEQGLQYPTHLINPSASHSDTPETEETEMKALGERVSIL
In short: as §3

CDK5 = target: T10, CDK5 (Homo sapiens, UniProt Q00535); assay: KinomeScan; assay type: binding; details: read-out: % Ctrl @ 10000 nM
T10 construct: host or cells: T7 phage in E. coli host derived from BL21
In short: as §3

CDK3 = target: T11, CDK3 (Homo sapiens, UniProt Q00526); assay: KinomeScan; assay type: binding; details: read-out: % Ctrl @ 10000 nM
T11 construct: host or cells: T7 phage in E. coli host derived from BL21
In short: as §3

SIK2 = target: T12, SIK2 (Homo sapiens, UniProt Q9H0K1); assay: KinomeScan; assay type: binding; details: read-out: % Ctrl @ 10000 nM
T12 construct: host or cells: T7 phage grown in E. coli (BL21-derived)
In short: as §3

[1] = target: T13, RPS6KA6(Kin.Dom.-2-C-terminal) (Homo sapiens, UniProt Q9UK32); assay: KinomeScan; assay type: binding; details: read-out: % Ctrl @ 10000 nM
T13 construct: RPS6KA6(Kin.Dom.-2-C-terminal); host or cells: T7 phage grown in E. coli (BL21-derived)
In short: as §3

CSNK1G2 = target: T14, CSNK1G2 (Homo sapiens, UniProt P78368); assay: KinomeScan; assay type: binding; details: read-out: % Ctrl @ 10000 nM
T14 construct: purchased Ambit Biosciences Corp (KinomeScan); host or cells: T7 phage in E. coli host derived from BL21
In short: as §3

CAMKK2 = target: T15, CAMKK2 (Homo sapiens, UniProt Q96RR4); assay: KinomeScan; assay type: binding; details: read-out: % Ctrl @ 10000 nM
T15 construct: host or cells: T7 phage in E. coli host derived from BL21
In short: as §3

PYK2 = target: T16, PYK2 (Homo sapiens, UniProt Q14289); assay: KinomeScan; assay type: binding; details: read-out: % Ctrl @ 10000 nM
T16 construct: host or cells: E. coli host derived from BL21, T7 phage display
In short: as §3

MYLK2 = target: T17, MYLK2 (Homo sapiens, UniProt Q9H1R3); assay: KinomeScan; assay type: binding; details: read-out: % Ctrl @ 10000 nM
T17 construct: host or cells: T7 phage grown in E. coli host derived from BL21
In short: as §3

CAMK4 = target: T18, CAMK4 (Homo sapiens, UniProt Q16566); assay: KinomeScan; assay type: binding; details: read-out: % Ctrl @ 10000 nM
T18 construct: host or cells: T7 phage in E. coli host derived from BL21
In short: as §3

TEC = target: T19, TEC (Homo sapiens, UniProt P42680); assay: KinomeScan; assay type: binding; details: read-out: % Ctrl @ 10000 nM
T19 construct: host or cells: T7 phage grown in E. coli (BL21-derived)
In short: as §3

YSK1 = target: T20, YSK1 (Homo sapiens, UniProt O00506); assay: KinomeScan; assay type: binding; details: read-out: % Ctrl @ 10000 nM
T20 construct: host or cells: T7 phage grown in an E. coli host derived from BL21
T20 sequence (O00506 whole entry): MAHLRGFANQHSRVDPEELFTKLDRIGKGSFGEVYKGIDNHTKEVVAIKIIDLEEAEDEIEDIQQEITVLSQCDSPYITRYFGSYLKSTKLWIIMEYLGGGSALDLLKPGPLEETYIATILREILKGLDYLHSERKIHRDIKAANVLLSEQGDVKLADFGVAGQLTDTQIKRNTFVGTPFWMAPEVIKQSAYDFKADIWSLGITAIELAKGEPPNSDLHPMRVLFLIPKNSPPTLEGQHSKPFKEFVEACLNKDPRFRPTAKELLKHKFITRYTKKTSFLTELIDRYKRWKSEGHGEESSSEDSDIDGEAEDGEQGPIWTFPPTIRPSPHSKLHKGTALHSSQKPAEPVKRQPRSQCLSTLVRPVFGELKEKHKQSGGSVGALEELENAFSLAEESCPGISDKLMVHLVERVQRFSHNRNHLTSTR
In short: as §3

PIP5K1A = target: T21, PIP5K1A (Homo sapiens, UniProt Q99755); assay: KinomeScan; assay type: binding; details: read-out: % Ctrl @ 10000 nM
T21 construct: host or cells: T7 phage in E. coli host derived from BL21
In short: as §3

AURKC = target: T22, AURKC (Homo sapiens, UniProt Q9UQB9); assay: KinomeScan; assay type: binding; details: read-out: % Ctrl @ 10000 nM
T22 construct: host or cells: E. coli host derived from BL21
In short: as §3

PHKG2 = target: T23, PHKG2 (Homo sapiens, UniProt P15735); assay: KinomeScan; assay type: binding; details: read-out: % Ctrl @ 10000 nM
T23 construct: host or cells: E. coli host derived from BL21, infected with T7 phage
In short: as §3

SNARK = target: T24, SNARK (Homo sapiens, UniProt Q9H093); assay: KinomeScan; assay type: binding; details: read-out: % Ctrl @ 10000 nM
T24 construct: host or cells: T7 phage grown in E. coli (BL21-derived)
In short: as §3

SIK = target: T25, SIK (Homo sapiens, UniProt P57059); assay: KinomeScan; assay type: binding; details: read-out: % Ctrl @ 10000 nM
T25 construct: host or cells: T7 phage grown in E. coli (BL21-derived)
In short: as §3

[2] = target: T26, RPS6KA1(Kin.Dom.-2-C-terminal) (Homo sapiens, UniProt Q15418); assay: KinomeScan; assay type: binding; details: read-out: % Ctrl @ 10000 nM
T26 construct: RPS6KA1(Kin.Dom.-2-C-terminal); host or cells: E. coli host derived from BL21, T7 phage display
In short: as §3

[3] = Acute toxicity (LD0, LD50); assay type: in vivo; details: both, mouse, in vivo, po, 7 days
Method: […]. The doses 500, 750, 1000 and 2000 mg/Kg were administered orally. Each group included 5 mice. […] The survived animals were autopsied for asserting the absorption of compound through g.i.t. The LD50 was determined according to the method described in Litchfield and Wilcoxon (J. Pharmacol. Exp. Ther. 1949, 96:99-113).

Chain of ERBB2 (P04626 23-1255): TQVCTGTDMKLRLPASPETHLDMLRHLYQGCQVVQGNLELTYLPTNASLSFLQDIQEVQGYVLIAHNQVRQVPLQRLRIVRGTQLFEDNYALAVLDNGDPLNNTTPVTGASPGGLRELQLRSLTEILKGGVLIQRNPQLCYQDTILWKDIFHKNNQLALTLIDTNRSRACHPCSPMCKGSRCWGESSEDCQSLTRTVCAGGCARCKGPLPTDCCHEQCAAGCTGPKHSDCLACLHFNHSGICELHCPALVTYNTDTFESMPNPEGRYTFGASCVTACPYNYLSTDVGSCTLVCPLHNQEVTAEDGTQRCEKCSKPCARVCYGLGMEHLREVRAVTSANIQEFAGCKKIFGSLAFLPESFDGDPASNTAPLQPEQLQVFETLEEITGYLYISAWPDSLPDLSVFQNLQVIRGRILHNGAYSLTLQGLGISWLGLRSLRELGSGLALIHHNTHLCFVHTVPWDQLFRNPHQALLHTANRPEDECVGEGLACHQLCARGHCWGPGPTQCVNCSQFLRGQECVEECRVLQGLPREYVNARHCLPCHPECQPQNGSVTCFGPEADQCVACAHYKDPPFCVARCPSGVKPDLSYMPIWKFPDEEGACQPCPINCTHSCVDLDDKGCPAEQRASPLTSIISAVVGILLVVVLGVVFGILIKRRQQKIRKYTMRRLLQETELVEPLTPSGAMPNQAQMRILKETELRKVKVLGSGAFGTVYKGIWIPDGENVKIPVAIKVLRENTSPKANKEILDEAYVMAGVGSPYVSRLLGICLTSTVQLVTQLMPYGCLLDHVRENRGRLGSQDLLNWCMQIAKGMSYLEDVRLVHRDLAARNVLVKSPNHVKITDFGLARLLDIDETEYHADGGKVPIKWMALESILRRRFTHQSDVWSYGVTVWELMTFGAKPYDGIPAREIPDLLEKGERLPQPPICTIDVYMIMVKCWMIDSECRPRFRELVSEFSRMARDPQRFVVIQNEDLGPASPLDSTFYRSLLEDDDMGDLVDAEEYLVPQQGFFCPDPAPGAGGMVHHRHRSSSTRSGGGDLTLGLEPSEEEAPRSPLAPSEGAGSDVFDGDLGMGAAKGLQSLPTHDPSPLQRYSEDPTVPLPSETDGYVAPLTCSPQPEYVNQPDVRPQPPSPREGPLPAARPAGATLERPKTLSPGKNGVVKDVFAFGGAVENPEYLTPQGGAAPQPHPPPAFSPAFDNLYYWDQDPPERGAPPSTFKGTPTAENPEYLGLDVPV

Question: Which remaining binding at 10 µM (ERBB2) does the source give for C#Cc1cccc(Nc2ncnc3cc(OC)c(OCCCN4CCOCC4)cc23)c1 [NRC-2694, N-(3-ethynylphenyl)-7-methoxy-6-[3-(4-morpholinyl)propoxy]-4-quinazolinamine] here?
Answer: 31%

Question: And the remaining binding at 10 µM (ERBB4)?
Answer: 3.3%

Question: What about the remaining binding at 10 µM (HCK) of the same molecule?
Answer: 17%

Question: What about the remaining binding at 10 µM (DMPK) of the same molecule?
Answer: 6.8%

Question: What about the remaining binding at 10 µM (CSNK1D) of the same molecule?
Answer: 25%

Question: What about the remaining binding at 10 µM (NEK5) of the same molecule?
Answer: 94%

Question: What about the remaining binding at 10 µM (VEGFR2) of the same molecule?
Answer: 95%

Question: What about the remaining binding at 10 µM (FES) of the same molecule?
Answer: 72%

Question: What about the remaining binding at 10 µM (ABL1(Y253F)) of the same molecule?
Answer: 23%

Question: And the remaining binding at 10 µM (PCTK1)?
Answer: 100%

Question: What about the remaining binding at 10 µM (PRKD1) of the same molecule?
Answer: 9.6%

Question: What about the remaining binding at 10 µM (CDK5) of the same molecule?
Answer: 100%

Question: What about the remaining binding at 10 µM (CDK3) of the same molecule?
Answer: 91%

Question: What about the remaining binding at 10 µM (SIK2) of the same molecule?
Answer: 21%

Question: What about the remaining binding at 10 µM [1] of the same molecule?
Answer: 55%

Question: What about the remaining binding at 10 µM (CSNK1G2) of the same molecule?
Answer: 76%

Question: And the remaining binding at 10 µM (CAMKK2)?
Answer: 60%

Question: And the remaining binding at 10 µM (PYK2)?
Answer: 71%

Question: And the remaining binding at 10 µM (MYLK2)?
Answer: 4.8%

Question: And the remaining binding at 10 µM (CAMK4)?
Answer: 92%

Question: And the remaining binding at 10 µM (TEC)?
Answer: 90%

Question: What about the remaining binding at 10 µM (YSK1) of the same molecule?
Answer: 69%

Question: And the remaining binding at 10 µM (PIP5K1A)?
Answer: 61%

Question: What about the remaining binding at 10 µM (AURKC) of the same molecule?
Answer: 47%

Question: What about the remaining binding at 10 µM (PHKG2) of the same molecule?
Answer: 59%

Question: What about the remaining binding at 10 µM (SNARK) of the same molecule?
Answer: 19%

Question: What about the remaining binding at 10 µM (SIK) of the same molecule?
Answer: 53%

Question: What about the remaining binding at 10 µM [2] of the same molecule?
Answer: 49%

Question: What about the LD0 [3] of the same molecule?
Answer: 2000 mg/kg

From patent US8921362B2, “6,7-dialkoxy quinazoline derivatives and methods of treating drug resistant and other tumors” (Natco Pharma Limited, priority 2008, dated 2014)
